Key:
[1] = target: T1, recombinant human 17β-HSD1 (Homo sapiens, UniProt P14061); assay: Inhibition of recombinant human 17β-HSD1; assay type: biochemical; conditions: inhibitor at 1 μM; 30 nM estrone, 1 mM NADPH, 30 min at RT; read-out: 17β-HDS1 Inhibition % at 1 μM
T1 construct: made in house; host or cells: Sd9 (Sf9) insect cells, baculovirus (Bac to Bac Expression System)
T1 sequence (P14061 1-328): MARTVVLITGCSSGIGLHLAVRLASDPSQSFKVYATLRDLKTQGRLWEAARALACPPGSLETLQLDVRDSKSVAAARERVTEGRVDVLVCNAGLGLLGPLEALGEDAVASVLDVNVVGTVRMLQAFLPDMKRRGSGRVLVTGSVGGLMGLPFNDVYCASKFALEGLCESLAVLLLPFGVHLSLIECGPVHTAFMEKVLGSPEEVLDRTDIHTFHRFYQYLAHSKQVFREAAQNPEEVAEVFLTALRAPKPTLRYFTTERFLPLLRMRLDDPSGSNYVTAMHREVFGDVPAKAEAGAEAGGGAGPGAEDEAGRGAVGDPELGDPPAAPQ
Protocol: Recombinant baculovirus was generated by the “Bac to Bac Expression System” (Invitrogen). Recombinant bacmid was transfected to Sd9 insect cells using “Cellfectin Reagent” (Invitrogen). 60 h later cells were harvested; the microsomal fraction was isolated as described by Puranen, T. J., Poutanen, M. H., Peltoketo, H. E., Vihko, P. T. and Vihko, R. K. (1994) Site-directed mutagenesis of the putative active site of human 17 β-hydroxysteroid dehydrogenase type 1. Biochem. J. 304: 289-293. Aliquots were stored frozen until determination of enzymatic activity.
Recombinant protein (1 μg/ml) was incubated in 20 mM KH2PO4 pH 7.4 with 30 nM estrone (including 800 000 cpm/ml of ^3H-estrone) and 1 mM NADPH for 30 min at RT, in the presence of the potential inhibitor at concentrations 1 μM or 0.1 μM. Inhibitor stock solutions were prepared in DMSO. Final concentration of DMSO was adjusted to 1% in all samples. The enzyme reaction was stopped by addition of 10% trichloroacetic acid (final concentration). Samples were centrifuged in a microtiter plate at 4000 rpm for 10 min. Supernatants were applied to reverse phase HPLC on a Waters Symmetry C18 column, equipped with a Waters Sentry Guard column. Isocratic HPLC runs were performed at RT at a flow rate of 1 ml/min in acetonitrile:water 48:52 as running solvent. Radioactivity was monitored in the eluate by a Packard Flow Scintillation Analyzer. Total radioactivity for estrone and estradiol were determined in each sample and percent conversion of estrone to estradiol was calculated according to the following formula:
(§1) [formula] Percent inhibition was calculated flowingly: % inhibition=100−% conversion

[2] = target: T2, recombinant human 17β-HSD2 (Homo sapiens, UniProt P37059); assay: Inhibition of recombinant human 17β-HSD2; assay type: biochemical; conditions: inhibitor at 1 μM; 50 nM estradiol, 1 mM NADH, 30 min at RT; read-out: 17β-HSD2 Inhibition % at 1 μM
T2 construct: made in house; host or cells: Sd9 (Sf9) insect cells, baculovirus (Bac to Bac Expression System)
T2 sequence (P37059 1-387): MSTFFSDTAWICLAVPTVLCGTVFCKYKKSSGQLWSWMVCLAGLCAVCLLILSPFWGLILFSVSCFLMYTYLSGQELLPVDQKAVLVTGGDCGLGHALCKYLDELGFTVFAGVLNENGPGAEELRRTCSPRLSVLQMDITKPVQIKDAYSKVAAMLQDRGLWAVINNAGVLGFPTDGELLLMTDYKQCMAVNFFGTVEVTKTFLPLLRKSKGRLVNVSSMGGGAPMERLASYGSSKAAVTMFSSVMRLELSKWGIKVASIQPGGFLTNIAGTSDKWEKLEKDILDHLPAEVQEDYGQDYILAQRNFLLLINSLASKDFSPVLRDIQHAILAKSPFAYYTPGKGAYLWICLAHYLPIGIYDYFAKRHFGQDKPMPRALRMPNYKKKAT
Protocol: Similarly to 17β-HSD1 the Recombinant baculovirus was generated by the “Bac to Bac Expression System” (Invitrogen). Recombinant bacmid was transfected to Sd9 insect cells using “Cellfectin Reagent” (Invitrogen). 60 h later cells were harvested and supernatant were fractionated by the following protocol: • cells were dissolved into 40 ml of A-buffer (40 mM TRIS, pH8.0, 20% glycerol, 20 μM NAD, 0.4 mM PMSF, 150 mM NaCl, 0.5% dodecyl-β-maltoside+protease inhibitor cocktail) • cells were sonicated • lysate was incubated on ice for 15 min • lysate was centrifuged 5000 rpm 15 min, +4° C. • centrifugation of the supernatant 180 000 g 30 min, +4° C. • pellet was dissolved into 8 ml of A-buffer • not resuspended material was removed by centrifugation 5000 rpm 15 min, +4° C. • the clear supernatant was divided into 100 μl aliquots and were stored frozen until determination of enzymatic activity.
The amount of 17β-HSD2 was analysed by immunoblotting and total protein concentration of each extract batch was determined.
Recombinant protein (4 μg/ml) was incubated in 20 mM KH2PO4 pH 8.5 with 50 nM estradiol (including 800 000 cpm/ml of ^3H-estradiol) and 1 mM NADH for 30 min at RT, in the presence of the potential inhibitor at concentrations 1 μM or 0.1 μM. Inhibitor stock solutions were prepared in DMSO. Final concentration of DMSO was adjusted to 1% in all samples. The enzyme reaction was stopped by addition of 10% trichloroacetic acid (final concentration). Samples were centrifuged in a microtiter plate at 4000 rpm for 10 min. Supernatants were applied to reverse phase HPLC on a Waters Symmetry C18 column, equipped with a Waters Sentry Guard column. Isocratic HPLC runs were performed at RT at a flow rate of 1 ml/min in acetonitrile:water 48:52 as running solvent. Radioactivity was monitored in the eluate by a Packard Flow Scintillation Analyzer. Total radioactivity for estrone and estradiol were determined in each sample and percent conversion of estradiol to estrone was calculated according to the following formula:
as §1

SMILES | inhibition at 1 µM [1] [%] | inhibition at 1 µM [2] [%]
Cc1cnc(NC(=O)CC[C@@H]2CC(=O)[C@@]3(C)CCC4c5ccc6ocnc6c5CCC4C23)s1 (stereo partly drawn) [Compound 46, 3-((7aS,10R)-7a-methyl-8-oxo-6,7,7a,8,9,10,10a,10b,11,12-decahydro-5bH-cyclopenta[7,8]phenanthro[1,2-d]oxazol-10-yl)-N-(5-methylthiazol-2-yl)propanamide] | 87 | 3
Cc1nc2cc3c(cc2o1)CCC1C3CC[C@]2(C)C(=O)C[C@@H](CCC(=O)Nc3ncc(C)s3)C12 (stereo partly drawn) [Compound 48, 3-((3R,12aS)-8,12a-dimethyl-1-oxo-2,3,3a,3b,4,5,10b,11,12,12a-decahydro-1H-cyclopenta[7,8]phenanthro[3,2-d]oxazol-3-yl)-N-(5-methylthiazol-2-yl)propanamide] | 91 | 2
Cc1nc2c3c(ccc2o1)C1CC[C@]2(C)C(=O)C[C@@H](CCC(=O)Nc4ncc(C)s4)C2C1CC3 (stereo partly drawn) [Compound 49, 3-((7aS,10R)-2,7a-dimethyl-8-oxo-6,7,7a,8,9,10,10a,10b,11,12-decahydro-5bH-cyclopenta[7,8]phenanthro[1,2-d]oxazol-10-yl)-N-(5-methylthiazol-2-yl)propanamide] | 84 | 1
Cc1cnc(NC(=O)CC[C@@H]2CC(=O)[C@@]3(C)CCC4c5cc6[nH]c(=O)oc6cc5CCC4C23)s1 (stereo partly drawn) [Compound 50, 3-((3R,12aS)-12a-methyl-1,8-dioxo-2,3,3a,3b,4,5,8,9,10b,11,12,12a-dodecahydro-1H-cyclopenta[7,8]phenanthro[3,2-d]oxazol-3-yl)-N-(5-methylthiazol-2-yl)propanamide] | 91 | 40
Cc1cnc(NC(=O)CC[C@@H]2CC(=O)[C@@]3(C)CCC4c5ccc6oc(=O)[nH]c6c5CCC4C23)s1 (stereo partly drawn) [Compound 51, 3-((7aS,10R)-7a-methyl-2,8-dioxo-2,5b,6,7,7a,8,9,10,10a,10b,11,12-dodecahydro-1H-cyclopenta[7,8]phenanthro[1,2-d]oxazol-10-yl)-N-(5-methylthiazol-2-yl)propanamide] | 78 | 1
COc1cc2c(cc1I)C1CC[C@]3(C)C(=O)C[C@@H](CCC(=O)Nc4ncc(C)s4)C3C1CC2 (stereo partly drawn) [Compound 52, 3-((13S,15R)-2-iodo-3-methoxy-13-methyl-17-oxo-7,8,9,11,12,13,14,15,16,17-decahydro-6H-cyclopenta[a]phenanthren-15-yl)-N-(5-methylthiazol-2-yl)propanamide] | 93 | 1
Cc1cnc(NC(=O)CC[C@@H]2CC(=O)[C@@]3(C)CCC4c5cc(I)c(O)c(I)c5CCC4C23)s1 (stereo partly drawn) [Compound 53, 3-((13S,15R)-3-hydroxy-2,4-diiodo-13-methyl-17-oxo-7,8,9,11,12,13,14,15,16,17-decahydro-6H-cyclopenta[a]phenanthren-15-yl)-N-(5-methylthiazol-2-yl)propanamide] | 94 | 5
Cc1cnc(NC(=O)CC[C@@H]2CC(=O)[C@@]3(C)CCC4c5ccc(O)c(I)c5CCC4C23)s1 (stereo partly drawn) [Compound 54, 3-((13S,15R)-3-hydroxy-4-iodo-13-methyl-17-oxo-7,8,9,11,12,13,14,15,16,17-decahydro-6H-cyclopenta[a]phenanthren-15-yl)-N-(5-methylthiazol-2-yl)propanamide] | 86 | 4
Cc1cnc(NC(=O)CC[C@@H]2CC(=O)[C@@]3(C)CCC4c5cc(I)c(O)cc5CCC4C23)s1 (stereo partly drawn) [Compound 55, 3-((13S,15R)-3-hydroxy-2-iodo-13-methyl-17-oxo-7,8,9,11,12,13,14,15,16,17-decahydro-6H-cyclopenta[a]phenanthren-15-yl)-N-(5-methylthiazol-2-yl)propanamide] | 98 | 7

Reference: US10377791B2, “Therapeutically active estratrienthiazole derivatives as inhibitors of 17 B-hydroxysteroid dehydrogenase, type 1” (FORENDO PHARMA LTD, priority 2013, dated 2019)
